The experiment can be described thus: Oral sensory evaluation of 50-ppm aqueous solutions by ten special panelists. Format: in vivo, human. To be noted: 50-ppm aqueous solution. Here is the method:
Using 3-1-menthoxy-1-propanol (1) obtained in Example 1, the mixture (2) of 3-1-menthoxy-1-propanol and 1-1-menthoxy-2-propanol at a weight ratio of 93:7 obtained in Example 2, and 1-1-menthoxy-2-propanol (3) obtained in Example 1, 50-ppm aqueous solutions were prepared.
The three 50-ppm aqueous solutions were subjected to oral sensory evaluation by ten special panelists with five or more years of experience.

As to `CC1CCC(C(C)C)C(OCCCO)C1` (centres unmarked) [(1), 3-1-menthoxy-1-propanol], the refreshing sensation entry (all the ten panelists) is “marked refreshing sensation”. In addition, the “strength and persistence of refreshing sensation” value (seven of the ten panelists) was “stronger and long-lasting refreshing sensation”.

(Values after patent US20140328771A1, “METHOD FOR PRODUCING 3-MENTHOXY PROPANOL AND COMPOSITIONS FOR IMPARTING COOLING SENSATION” (Takasago International Corporation, priority 2011, published 2014).)
